According to US7803795B2, “Phthalazine derivatives as parp inhibitors” (Janssen Pharmaceutica N.V., priority 2004, dated 2010):

Target: T1, PARP-1 enzyme (Homo sapiens, UniProt P09874)
T1 construct: made in house
Test: in vitro filtration assay for PARP-1 inhibitory activity
Format: biochemical
Settings: [32P]-NAD, histones, nicked DNA; dose-response 10^-5 M to 10^-8 M; read-out: in vitro filter assay PARP-1 pIC50 (converted)
Method: In Vitro Filtration Assay for PARP-1 Inhibitory Activity
Compounds of the present invention were tested in an in vitro filtration assay assessing PARP-1 activity (triggered in the presence of nicked DNA) by means of its histone poly (ADP-ribosylation activity using [^32P]-NAD as ADP-ribosyl donor. The radioactive ribosylated histones were precipitated by trichloroacetic acid (TCA) in 96-well filterplates and the incorporated [^32P] measured using a scintillation counter
A mixture of histones (stock solution: 5 mg/ml in H2O), NAD^+ (stock solution: 100 mM in H2O), and [^32P]-NAD^+ in incubation buffer (50 mM Tris/HCl, pH 8; 0.2 mM DTT; 4 mM MgCl2) was made. A mixture of the PARP-1 enzyme (5-10 μg/ml) and nicked DNA was also made. The nicked DNA was prepared as described in the in vitro SPA for PARP-1 inhibitory activity. Seventy-five μl of the PARP-1 enzyme/DNA mixture together with 1 μl of compound in DMSO and 25 μl of histones-NAD^+/[^32P]-NAD^+ mixture was added per well of a 96-well filterplate (0.45 μm, supplier Millipore). The final concentrations in the incubation mixture were 2 μg/ml for the histones, 0.1 mM for the NAD^+, […] (0.5 μC) for the [^32P]-NAD^+ and 2 μg/ml for the nicked DNA. Plates were incubated for 15 min. at room temperature and the reaction was terminated by the addition of 10 μl ice cold 100% TCA followed by the addition of 10 μl ice-cold BSA solution (1% in H2O). The protein fraction was allowed to precipitate for 10 min. at 4° C. and plates were vacuum filtered. The plates were subsequently washed with, for each well, 1 ml of 10% ice cold TCA, 1 ml of 5% ice cold TCA and 1 ml of 5% TCA at room temperature. Finally 100 μl of scintillation solution (Microscint 40, Packard) was added to each well and the plates were transferred to a TopCountNXT™ (supplier: Packard) for scintillation counting and values were expressed as counts per minute (cpm). For each experiment, controls (containing PARP-1 enzyme and DMSO without compound), a blank incubation (containing DMSO but no PARP-1 enzyme or compound) and samples (containing PARP-1 enzyme and compound dissolved in DMSO) were run in parallel. All compounds tested were dissolved and eventually further diluted in DMSO. In first instance, compounds were tested at a concentration of 10^−5M. […] In each test, the blank value was subtracted from both the control and the sample values. The control sample represented maximal PARP-1 enzyme activity. For each sample, the amount of cpm was expressed as a percentage of the mean cpm value of the controls. When appropriate, IC50-values (concentration of the drug, needed to reduce the PARP-1 enzyme activity to 50% of the control) were computed using linear interpolation between the experimental points just above and below the 50% level. Herein the effects of test compounds are expressed as pIC50 (the negative log value of the IC50-value). As a reference compound, 4-amino-1,8-naphthalimide was included to validate the filtration assay.

T1 sequence (P09874 whole entry): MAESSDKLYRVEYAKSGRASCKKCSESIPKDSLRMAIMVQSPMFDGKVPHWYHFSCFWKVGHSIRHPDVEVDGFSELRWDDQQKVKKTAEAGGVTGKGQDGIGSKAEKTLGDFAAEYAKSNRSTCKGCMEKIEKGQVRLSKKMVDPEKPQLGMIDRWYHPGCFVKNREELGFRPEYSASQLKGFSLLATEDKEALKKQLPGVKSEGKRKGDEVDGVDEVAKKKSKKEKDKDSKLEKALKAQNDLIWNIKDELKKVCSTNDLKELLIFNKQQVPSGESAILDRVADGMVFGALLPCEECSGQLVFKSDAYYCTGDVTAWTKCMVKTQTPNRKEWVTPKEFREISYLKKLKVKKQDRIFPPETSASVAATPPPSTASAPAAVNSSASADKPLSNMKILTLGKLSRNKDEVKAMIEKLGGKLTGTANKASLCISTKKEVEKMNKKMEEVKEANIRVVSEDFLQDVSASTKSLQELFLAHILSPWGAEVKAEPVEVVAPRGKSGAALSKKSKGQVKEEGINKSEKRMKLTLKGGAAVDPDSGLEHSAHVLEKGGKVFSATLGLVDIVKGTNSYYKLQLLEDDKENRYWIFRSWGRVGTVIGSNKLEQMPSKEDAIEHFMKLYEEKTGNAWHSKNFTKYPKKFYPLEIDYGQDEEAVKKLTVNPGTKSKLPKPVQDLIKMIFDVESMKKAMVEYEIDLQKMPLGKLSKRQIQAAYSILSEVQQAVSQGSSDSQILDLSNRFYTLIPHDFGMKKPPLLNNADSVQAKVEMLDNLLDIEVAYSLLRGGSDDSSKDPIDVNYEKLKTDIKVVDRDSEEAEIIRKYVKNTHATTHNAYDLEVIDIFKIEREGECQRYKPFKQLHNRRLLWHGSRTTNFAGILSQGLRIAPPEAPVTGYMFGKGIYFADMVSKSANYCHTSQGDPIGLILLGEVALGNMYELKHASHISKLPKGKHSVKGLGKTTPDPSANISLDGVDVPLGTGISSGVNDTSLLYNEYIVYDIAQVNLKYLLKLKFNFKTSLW

Row | SMILES | IC50
1 | O=c1[nH]nc(NC2CCCNCC2)c2ccccc12 (stereo not shown) [Compound 34] | 49.4 nM
2 | CCOC(=O)N1CCC(Nc2n[nH]c(=O)c3ccccc23)C1 (stereo not shown) [Compound 48] | 163 nM
3 | CCOC(=O)N1CCC(c2n[nH]c(=O)c3ccccc23)CC1 [Compound 25] | 240 nM
4 | Cc1nnc(N2CCN(CCn3c(=O)[nH]c4ccccc4c3=O)CC2)c2ccccc12 [Compound 70] | 268 nM
5 | CCOC(=O)N1CCCC(Nc2n[nH]c(=O)c3ccccc23)CC1 (stereo not shown) [Compound 50] | 643 nM
6 | Clc1nnc(NC2CCN(CCCCOc3ccccc3)CC2)c2ccccc12 [Compound 59] | 813 nM
7 | O=c1[nH]nc(C2CCN(CCCOc3ccc(F)cc3)CC2)c2ccccc12 [Compound 13] | 19.1 nM
8 | Cc1nnc(N2CCN(CCCC(c3ccc(F)cc3)c3ccc(F)cc3)CC2)c2ccccc12 [Compound 29] | 302 nM
9 | Cc1nc2ccccn2c(=O)c1CCN1CCN(c2nnc(C)c3ccccc23)CC1 [Compound 72] | 1050 nM
10 | Cc1nc2n(c(=O)c1CCN1CCN(c3nnc(C)c4ccccc34)CC1)CCCS2 [Compound 76] | 413 nM
11 | CCOC(=O)N1[C@@H]2CC[C@H]1C[C@H](Nc1nnc(Cl)c3ccccc13)C2 [Compound 24] | 388 nM
12 | O=c1[nH]nc(NC2CCN(CCCCOc3ccccc3)CC2)c2ccccc12 [Compound 46] | 134 nM
13 | Fc1ccc(C(CCCN2CCN(c3nnc(Cl)c4ccccc34)CC2)c2ccc(F)cc2)cc1 [Compound 57] | 472 nM
14 | CCOC(=O)N1[C@@H]2CC[C@H]1C[C@H](Nc1n[nH]c(=O)c3ccccc13)C2 [Compound 11] | 30 nM
15 | O=c1[nH]nc(NC2CCCN(CCCC(c3ccc(F)cc3)c3ccc(F)cc3)CC2)c2ccccc12 (stereo not shown) [Compound 30] | 230 nM
16 | O=c1[nH]nc(N2CCC(c3cccc(C(F)(F)F)c3)C2)c2ccccc12 (stereo not shown) [Compound 55] | 210 nM
17 | O=c1[nH]nc(N2CCN(CCCC(c3ccc(F)cc3)c3ccc(F)cc3)CC2)c2ccccc12 [Compound 52] | 356 nM
18 | O=c1[nH]nc(NC2CCN(C/C=C/c3ccccc3)CC2)c2ccccc12 [Compound 65] | 91.2 nM
19 | O=c1[nH]nc(NCC2CCCN(CCCC(c3ccc(F)cc3)c3ccc(F)cc3)C2)c2ccccc12 (stereo not shown) [Compound 49] | 516 nM
20 | CCOC(=O)N1CCC(Nc2n[nH]c(=O)c3ccccc23)CC1 [Compound 56] | 774 nM
21 | Cc1nc2sccn2c(=O)c1CCN1CCN(c2nnc(C)c3ccccc23)CC1 [Compound 73] | 515 nM

Row | SMILES | IC50
22 | O=c1[nH]nc(C2CCN(CCCC(c3ccc(F)cc3)c3ccc(F)cc3)CC2)c2ccccc12 [Compound 67] | 233 nM
23 | Cc1nc2scc(C)n2c(=O)c1CCN1CCN(c2nnc(C)c3ccccc23)CC1 [Compound 74] | 610 nM
24 | Cc1nc2n(c(=O)c1CCN1CCN(c3nnc(C)c4ccccc34)CC1)CCS2 [Compound 75] | 361 nM
25 | O=c1[nH]nc(NCC2CCCN(Cc3ccccc3)C2)c2ccccc12 (stereo not shown) [Compound 44] | 221 nM
26 | O=c1[nH]nc(NC2CCN(C[C@@H](O)[C@@H]3CCc4ccccc4O3)CC2)c2ccccc12 (relative stereo) [Compound 27] | 215 nM
27 | O=c1[nH]nc(C2CCN(Cc3ccccc3)CC2)c2ccccc12 [Compound 1] | 55 nM
28 | CN(c1nc2ccccc2s1)C1CCN(c2nnc(Cl)c3ccccc23)CC1 [Compound 61] | 296 nM
29 | CCOC(=O)N1CCN(c2nnc(Cl)c3ccccc23)CC1 [Compound 58] | 316 nM
30 | O=c1[nH]nc(NC2CCCN(Cc3ccccc3)C2)c2ccccc12 (stereo not shown) [Compound 53] | 217 nM
31 | O=c1[nH]nc(N[C@@H]2C[C@H]3CC[C@@H](C2)N3)c2ccccc12 [Compound 15] | 35.5 nM
32 | O=c1[nH]nc(C2CCNCC2)c2ccccc12 [Compound 4] | 70.8 nM
33 | Clc1nnc(NC2CCN(Cc3ccccc3)C2)c2ccccc12 (stereo not shown) [Compound 12] | 188 nM
34 | Clc1nnc(N2CCN(c3ccccc3)CC2)c2ccccc12 [Compound 77] | 168 nM
35 | Cc1nnc(N2CCN(CCn3c(=O)[nH]c4ccccc43)CC2)c2ccccc12 [Compound 71] | 533 nM
36 | O=c1[nH]nc(C2CCN(c3ncccn3)CC2)c2ccccc12 [Compound 69] | 125 nM
37 | O=c1[nH]nc(NC2CCN(Cc3ccccc3)C2)c2ccccc12 (stereo not shown) [Compound 51] | 300 nM
38 | COc1ccc(CCN2CCC(Nc3n[nH]c(=O)c4ccccc34)CC2)cc1 [Compound 63] | 146 nM
39 | O=c1[nH]nc(C2CCN(C/C=C/c3ccccc3)CC2)c2ccccc12 [Compound 66] | 96.4 nM
40 | O=c1[nH]nc(C2CCN(CCCCOc3ccccc3)CC2)c2ccccc12 [Compound 68] | 50 nM
41 | O=c1[nH]nc(N[C@@H]2C[C@H]3CC[C@@H](C2)N3CCCC(c2ccc(F)cc2)c2ccc(F)cc2)c2ccccc12 [Compound 3] | 204 nM

Tested on: not given
Test: not given
Settings: not given

Row | SMILES | melting point
42 | CCOC(=O)N1[C@@H]2CC[C@H]1C[C@H](Nc1n[nH]c(=O)c3ccccc13)C2 [Compound 11] | 218.6 °C
43 | O=c1[nH]nc(C2CCN(Cc3ccccc3)CC2)c2ccccc12 [Compound 1] | 222 °C
